Experimental data: article PMC8694140, “Synthesis and photobiological applications of naphthalimide–benzothiazole conjugates: cytotoxicity and topoisomerase IIα inhibition” (RSC Advances, 2021)

Experiments:
[1] = tested on: MCF7 (breast) human cancer cell line; assay: MTT cytotoxicity assay, MCF7; assay type: cell-based
Method: (§1) Human malignant cell lines, i.e., MCF7 (breast), HeLa (cervix), and A549 (lung), as well as non-cancerous human cell line Hek293 (kidney), were cultured using the Ham's media or DMEM having 10% FBS, […] streptomycin, 100 U ml^−1 penicillin, and 50 mM glutamine. For seeding of cells, 96 well plates were used, maintaining the density of […] cells per well with the help of DMEM as a media having 10% FBS cells. Then, seeded cells were incubated in an incubator having a 5% CO2 supply at 37 °C. Compounds were added to the wells at 1, 10, and 100 μM concentrations, and cells were incubated for 48 h at 37 °C and then added 10 μl of MTT to each well prepared from 5 mg ml^−1 stock solution using 1 × PBS buffer and were incubated for 4 h at 37 °C in the dark. DMSO (100 μl) was used to dissolve the formazan crystals. To determine the concentration of formazan, the crystal absorbance difference was recorded at 570 nm. The percentage of relative cell toxicity was calculated by using the following eqn (1):1 [drawing 1]

[2] = tested on: HeLa (cervix) human cancer cell line; assay: MTT cytotoxicity assay, HeLa; assay type: cell-based; details: 48 h
Method: as §1

[3] = tested on: A549 (lung) human cancer cell line; assay: MTT cytotoxicity assay, A549; assay type: cell-based
Method: as §1

[4] = tested on: Hek293 (kidney) human noncancerous cell line; assay: MTT cytotoxicity assay, normal cells Hek293; assay type: cell-based; details: read-out: growth inhibition of Hek293
Method: To evaluate the safety, the cytotoxic effect of all compounds (7–22) against Hek293 (kidney) human noncancerous cell line was also evaluated using a colorimetric assay (MTT assay) at the concentration level of 10 μM.
as §1

| Compound | melting point [°C] | IC50 ([1]; Homo sapiens, MCF7, 48 h) [µM] | IC50 ([2]; Homo sapiens) [µM] | IC50 ([3]; Homo sapiens, A549, 48 h) [µM] | inhibition at 10 µM [4] [%] | IC50 ([1]; 48 h) [µM] | IC50 [2] [µM] | IC50 ([3]; 48 h) [µM] |
| --- | --- | --- | --- | --- | --- | --- | --- | --- |
| CCCn1cc(-c2nc3ccccc3s2)c2cc(-c3ccc4c5c(cccc35)C(=O)N(N)C4=O)ccc21 [Compound 22, 2-Amino-6-(3-(benzo[d]thiazol-2-yl)-1-propyl-1H-indol-5-yl)-1H-benzo[de]isoquinoline-1,3(2H)-dione] |  | 5.84 ± 0.28 | 8.59 ± 0.28 | 0.84 ± 0.07 |  |  |  |  |
| COc1cc([C@@H]2c3cc4c(cc3[C@@H](O[C@@H]3O[C@@H]5CO[C@@H](C)O[C@H]5[C@H](O)[C@H]3O)[C@H]3COC(=O)[C@H]23)OCO4)cc(OC)c1O [Etoposide, reference compound] |  | 0.33 ± 0.13 | 1.89 ± 0.19 | 0.1 ± 0.02 |  |  |  |  |
| C=CCN1C(=O)c2cccc3c(-c4ccc5c(c4)c(-c4nc6ccccc6s4)cn5CC=C)ccc(c23)C1=O [Compound 15, 2-Allyl-6-(1-allyl-3-(benzo[d]thiazol-2-yl)-1H-indol-5-yl)-1H-benzo[de]isoquinoline-1,3(2H)-dione] |  | 0.38 ± 0.06 | 2.71 ± 0.09 | 1.89 ± 0.15 |  |  |  |  |
| C=CCn1cc(-c2nc3ccccc3s2)c2cc(-c3ccc4c5c(cccc35)C(=O)N(Nc3ccccc3)C4=O)ccc21 [Compound 18, 6-(1-Allyl-3-(benzo[d]thiazol-2-yl)-1H-indol-5-yl)-2-(phenylamino)-1H-benzo[de]isoquinoline-1,3(2H)-dione] |  | 3.58 ± 0.14 | 3.96 ± 0.2 | 0.96 ± 0.12 |  |  |  |  |
| C=CCn1cc(-c2nc3ccccc3s2)c2cc(-c3ccc4c5c(cccc35)C(=O)N(CCN)C4=O)ccc21 [Compound 9, 6-(1-Allyl-3-(benzo[d]thiazol-2-yl)-1H-indol-5-yl)-2-(2-aminoethyl)-1H-benzo[de]isoquinoline-1,3(2H)-dione] |  | 4.17 ± 0.13 | 4.02 ± 0.18 | 3.06 ± 0.13 | 17 |  |  |  |
| 6-(3-(Benzo[d]thiazol-2-yl)-1-propyl-1H-indol-5-yl)-2-(4-fluorophenyl)-1H-benzo[de]isoquinoline-1,3(2H)-dione [Compound 21] |  |  |  |  |  | 4.1 ± 0.23 | 3.96 ± 0.16 | 0.63 ± 0.08 |

Continued, in another order:

| melting point [°C] | Compound | IC50 ([1]; Homo sapiens, MCF7, 48 h) [µM] | IC50 ([2]; Homo sapiens) [µM] | IC50 ([3]; Homo sapiens, A549, 48 h) [µM] | inhibition at 10 µM [4] [%] | IC50 ([1]; 48 h) [µM] | IC50 [2] [µM] | IC50 ([3]; 48 h) [µM] |
| --- | --- | --- | --- | --- | --- | --- | --- | --- |
| 294 to 297 | C=CCn1cc(-c2nc3ccccc3s2)c2cc(-c3ccc4c5c(cccc35)C(=O)N(CCN3CCNCC3)C4=O)ccc21 [Compound 20, 6-(1-Allyl-3-(benzo[d]thiazol-2-yl)-1H-indol-5-yl)-2-(2-(piperazin-1-yl)ethyl)-1H-benzo[de] isoquinoline-1,3(2H)-dione] | 3.35 ± 0.16 | 3.45 ± 0.13 | 0.76 ± 0.04 | 18 |  |  |  |
| 255 to 258 | C=CCn1cc(-c2nc3ccccc3s2)c2cc(-c3ccc4c5c(cccc35)C(=O)OC4=O)ccc21 [Compound 7, 6-(1-Allyl-3-(benzo[d]thiazol-2-yl)-1H-indol-5-yl)-1H,3H-benzo[de]isochromene-1,3-dione] | 6.94 ± 0.16 | 7.18 ± 0.28 | 0.45 ± 0.04 |  |  |  |  |
| 277 to 280 | C=CCn1cc(-c2nc3ccccc3s2)c2cc(-c3ccc4c5c(cccc35)C(=O)NC4=O)ccc21 [Compound 16, 6-(1-Allyl-3-(benzo[d]thiazol-2-yl)-1H-indol-5-yl)-1H-benzo[de]isoquinoline-1,3(2H)-dione] | 3.57 ± 0.08 | 3.61 ± 0.19 | 1.91 ± 0.1 |  |  |  |  |
| 281 to 284 | C=CCn1cc(-c2nc3ccccc3s2)c2cc(-c3ccc4c5c(cccc35)C(=O)N(Cc3ccccc3)C4=O)ccc21 [Compound 17, 6-(1-Allyl-3-(benzo[d]thiazol-2-yl)-1H-indol-5-yl)-2-benzyl-1H-benzo[de]isoquinoline-1,3(2H)-dione] | 4.39 ± 0.23 | 4.17 ± 0.21 | 2.01 ± 0.09 |  |  |  |  |
| 281 to 284 | C=CCn1cc(-c2nc3ccccc3s2)c2cc(-c3ccc4c5c(cccc35)C(=O)N(CCN(CC)CC)C4=O)ccc21 [Compound 11, 6-(1-Allyl-3-(benzo[d]thiazol-2-yl)-1H-indol-5-yl)-2-(2-(diethylamino)ethyl)-1H-benzo[de] isoquinoline-1,3(2H)-dione] | 3.57 ± 0.21 | 3.07 ± 0.17 | 0.81 ± 0.05 | ~2 |  |  |  |
| 277 to 280 | C=CCn1cc(-c2nc3ccccc3s2)c2cc(-c3ccc4c5c(cccc35)C(=O)N(CCCC)C4=O)ccc21 [Compound 8, 6-(1-Allyl-3-(benzo[d]thiazol-2-yl)-1H-indol-5-yl)-2-butyl-1H-benzo[de]isoquinoline-1,3(2H)-dione] | 7.69 ± 0.2 | 5.52 ± 0.15 | 1.19 ± 0.11 |  |  |  |  |
| 285 to 288 | C=CCn1cc(-c2nc3ccccc3s2)c2cc(-c3ccc4c5c(cccc35)C(=O)N(C3CCCCC3)C4=O)ccc21 [Compound 19, 6-(1-Allyl-3-(benzo[d]thiazol-2-yl)-1H-indol-5-yl)-2-cyclohexyl-1H-benzo[de]isoquinoline-1,3(2H)-dione] | 1.65 ± 0.11 | 3.33 ± 0.11 | 1.47 ± 0.12 |  |  |  |  |
| 285 to 288 | C=CCn1cc(-c2nc3ccccc3s2)c2cc(-c3ccc4c5c(cccc35)C(=O)N(CCN3CCOCC3)C4=O)ccc21 [Compound 14, 6-(1-Allyl-3-(benzo[d]thiazol-2-yl)-1H-indol-5-yl)-2-(2-morpholinoethyl)-1H-benzo[de]isoquinoline-1,3(2H)-dione] | 3.69 ± 0.09 | 3.93 ± 0.11 | 1.11 ± 0.06 |  |  |  |  |
| 274 to 277 | C=CCn1cc(-c2nc3ccccc3s2)c2cc(-c3ccc4c5c(cccc35)C(=O)N(CCN(C)C)C4=O)ccc21 [Compound 10, 6-(1-Allyl-3-(benzo[d]thiazol-2-yl)-1H-indol-5-yl)-2-(2-(dimethylamino)ethyl)-1H-benzo[de] isoquinoline-1,3(2H)-dione] | 3.31 ± 0.11 | 3.4 ± 0.13 | 1.02 ± 0.08 |  |  |  |  |
